Each structure is given as a SMILES string.

Usually EC50 stands for the concentration giving half of the maximal effect. One may read the Ki as the dissociation constant of the complex between target and ligand, obtained from inhibition or displacement. Lower therefore signals higher affinity.

Experiment [1] deals with T1, Histamine H3 receptor (Homo sapiens, UniProt Q9Y5N1). The experiment is described as follows: Inverse agonist activity at human histamine H3 receptor expressed in CHO cells assessed as inhibition of [35S]-GTPgammaS binding by liquid scintillation counting. It counts as functional, cell-based. A general note: GTPγS is a poorly hydrolysed GTP analogue; its binding reports G protein activation.

In experiment [2] the target is T1, Histamine H3 receptor. The experiment is described as follows: Displacement of [3H]-Nalpha-methylhistamine from human histamine H3 receptor expressed in CHO cells by liquid scintillation counting. It counts as cell-based. (In a radioligand displacement assay an active substance lowers the binding of a labelled ligand.)

T1 sequence (Q9Y5N1 whole entry): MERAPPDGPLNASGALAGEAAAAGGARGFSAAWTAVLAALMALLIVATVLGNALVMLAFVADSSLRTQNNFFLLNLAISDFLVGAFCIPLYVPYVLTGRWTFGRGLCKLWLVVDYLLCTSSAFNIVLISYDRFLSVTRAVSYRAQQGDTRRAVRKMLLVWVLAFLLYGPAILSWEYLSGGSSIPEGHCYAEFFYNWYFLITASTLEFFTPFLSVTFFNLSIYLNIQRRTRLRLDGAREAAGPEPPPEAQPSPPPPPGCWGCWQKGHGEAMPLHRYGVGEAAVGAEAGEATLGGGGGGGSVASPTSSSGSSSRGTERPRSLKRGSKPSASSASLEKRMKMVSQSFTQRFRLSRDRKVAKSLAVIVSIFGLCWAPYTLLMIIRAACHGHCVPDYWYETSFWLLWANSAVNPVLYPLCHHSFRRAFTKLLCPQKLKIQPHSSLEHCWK

`CC1(C)COC(c2ccc(OCCCN3CCCCC3)cc2)=N1`: the EC50 on Histamine H3 receptor [1] was 15.8 nM. For the same compound, the Ki on Histamine H3 receptor [2] was 158 nM.
Consider `CC1(C)COC(c2ccc(O[C@H]3C[C@H](N4CCCCC4)C3)cc2)=N1`, for which the EC50 on Histamine H3 receptor [1] is 0.631 nM. Also, on Histamine H3 receptor [2], the Ki is 7.94 nM.
Consider `c1cc(C2=NC3(CCCCC3)CO2)ccc1OCCCN1CCCCC1`, for which the EC50 at Histamine H3 receptor [1] is 7.94 nM. This compound also gave a Ki on Histamine H3 receptor [2] of 79.4 nM.
For the compound `c1cc(C2=NC3(CCCCC3)CO2)ccc1O[C@H]1C[C@H](N2CCCCC2)C1`, the concentration for a half-maximal effect (EC50) at Histamine H3 receptor [1] is 2 nM. On Histamine H3 receptor [2], this compound showed a Ki of 2 nM.
Consider `c1cc(C2=NC3(CCCCC3)CO2)ccc1O[C@H]1C[C@@H](N2CCCCC2)C1`, for which the EC50 at Histamine H3 receptor [1] is 79.4 nM. This compound gave a Ki at Histamine H3 receptor [2] of 251 nM.
The like results for `c1cc(-c2nc(CN3CCCCC3)co2)ccc1OCCCN1CCCCC1` were, in that order, 1.58 nM and 6.31 nM.
The like results for `c1cc(-c2nc(CN3CCCCC3)co2)ccc1O[C@H]1C[C@H](N2CCCCC2)C1` were, in that order, 3.16 nM and 1.26 nM.
For `COC(=O)c1oc(-c2ccc(O[C@H]3C[C@H](N4CCCCC4)C3)cc2)nc1C` the same measures were 1.58 nM and 2 nM.

Values taken from ChEMBL document CHEMBL3217520, “Histamine H3 receptor ligands with a 3-cyclobutoxy motif: a novel and versatile constraint of the classical 3-propoxy linker” (Medchemcomm, 2010).
